According to paper PMC5833389 (Oncogenesis, 2018):
Several values for one entry are separate records, joined by “and”; a condition that tells them apart may be missing. Identical values can stand only once. Like-named read-outs stand apart in the source and are kept apart here.

Columns and labels:
PTK2B/PYK2 [1] = target: T1, PTK2B/PYK2 (Homo sapiens, UniProt Q14289); assay: PYK2 kinase assay, DELFIA format; format: biochemical
T1 construct: purchased Invitrogen/Life Technologies
Protocol: (§1) IC50 values on FAK and PYK2 were determined using the DELFIA® format, using kinase proteins obtained from Invitrogen (#PV3832, #PV4567) and biotinylated poly(Glu,Tyr) as substrate. Incubation in the presence of test compound was followed by detection of phosphorylated substrate using streptavidin-coated plates and Eu-N1 anti-phospho-Tyr PT66 antibody (#AD0040, VICTOR™ reader, both Perkin Elmer). Data were analyzed using GraphPad Prism. […] Data was fitted by iterative calculation using a sigmoidal curve analysis with variable Hill slope. In independent assays, IC50 values were determined using Z'-LYTE® technology, which is based on FRET (Invitrogen/Life Technologies).

PTK2B/PYK2 [2] = target: T1, PTK2B/PYK2; assay: PYK2 kinase assay, Z'-LYTE (FRET); format: biochemical
Protocol: as §1

FER = target: T2, FER (Homo sapiens, UniProt P16591); assay: FER kinase assay, Z'-LYTE; format: biochemical
T2 construct: purchased Invitrogen/Life Technologies
Protocol: as §1, with “Technologies). Selectivity was determined on the Invitrogen kinase panel at 1 µmol/L.” for “Technologies).”

FES = target: T3, FES (Homo sapiens, UniProt P07332); assay: FES kinase assay, Z'-LYTE; format: biochemical
T3 construct: purchased Invitrogen/Life Technologies
Protocol: as §1, with “Technologies). Selectivity was determined on the Invitrogen kinase panel at 1 µmol/L.” for “Technologies).”

PAK7 = target: T4, PAK7 (Homo sapiens, UniProt Q9P286); assay: PAK7 kinase assay, Z'-LYTE; format: biochemical
T4 construct: purchased Invitrogen/Life Technologies
Protocol: as §1, with “Technologies). Selectivity was determined on the Invitrogen kinase panel at 1 µmol/L.” for “Technologies).”

PC-3 cells [3] = assay: Proliferation assay, adherent monolayer, alamarBlue; format: cell-based, human; details: Homo sapiens, PC-3, adherent monolayers
Protocol: PC-3 cells were incubated with compounds for 5 days at 37 °C/5% CO2, stained with alamarBlue® and fluorescence was determined (544 nm/590 nm). Data were analyzed as described above.

PC-3 cells [4] = assay: Clonogenic assay in soft agar (anchorage-independent growth); format: cell-based, human; details: Homo sapiens, PC-3, alamarBlue, read-out: Colony formation EC50 PC-3
Protocol: Clonogenic assays were performed using agarose-containing media. Cells were incubated at 37 °C and 5% CO2 for 14 days. alamarBlue® was used to detect colonies of viable cells (530 nm/590 nm). Data analysis was performed as described above.

[5] = tested on: Calu-6 lung adenocarcinoma cells; assay: Cancer cell line panel, 2D proliferation (Eurofins Panlabs); format: cell-based, human; details: Calu-6, 2D culture, 72 h
Protocol: (§2) Drug sensitivity of a panel of human cancer cell lines was tested at Eurofins Panlabs (Bothell, WA, USA). Cells were treated for 72 h, fixed and stained with diaminophenylindole to visualize nuclei and the fluorescence intensity of each well was measured (GE Healthcare IN Cell Analyzer 1000). Relative cell proliferation in compound-treated cultures (signal as percent of control, “POC”) was calculated as follows: POC (t = 72 h) = 100 × fluorescence (compound wells) / fluorescence (control wells). In addition, for each compound-treated culture, the cell count after incubation for 72 h (POC [t = 72 h]) was related to the count at start of treatment (POC [t = 0 h]): POC [t = 0 h] = 100 × fluorescence at t = 0 [control wells]/fluorescence at t = 72 h [control wells]). To calculate concentration–response curves, POC data were analyzed using a four-parameter log-logistic function without upper or lower limitation.

PC-3 = assay: as above; format: cell-based, human; details: PC-3, 2D culture, 72 h
Protocol: as §2

[6] = tested on: panel of 243 cancer cell lines; assay: as above; format: cell-based, human; details: 2D culture
Protocol: as §2

[7] = Single-dose pharmacokinetics in nude mice; format: in vivo
Text: (§3) Plasma and homogenized tumor samples were extracted and analyzed by LC-MS. Detection was at unit resolution with a MRM 589.2/474.8. All calibration and QC samples were with ±20% (p.o.) and ±30% (i.v.) of the nominal value in the linear range of the calibration fitted with a linear regression and 1/x^2 weighting.

[8] = Drug concentrations in plasma and tumor of PC-3 tumor-bearing mice; format: in vivo; details: BomTac:NMRI-Foxn1^nu, mouse; for concentration at 24 h: oral
Text: as §3

[9] = Tolerability of daily oral dosing in nude mice; format: in vivo; details: daily oral doses of 50 mg/kg
Protocol: For efficacy studies, 1 × 10^7 MIA PaCa-2 or 1 × 10^6 BxPC-3 cells (with Matrigel® 50:50) were injected subcutaneously into the right flank of female BomTac:NMRI-Foxn1^nu mice (age 6 weeks, 24-30 g; Taconic, Denmark). […] Mice were randomized according to tumor volume when tumors had reached diameters of 6–8 mm. […] Natrosol-treated animals served as vehicle controls (n = 10). Tumor diameters were measured three times weekly using a caliper and volumes were calculated according to the formula “tumor volume = length × diameter^2 × π/6”. Mice were inspected daily for abnormalities and body weight was determined three times weekly. Animals were euthanized at the end of the study or prematurely, based on criteria including weight loss exceeding 20%, tumor necrosis or tumor volumes exceeding 1500 mm^3.

A-498 kidney xenograft = assay: Subcutaneous xenograft efficacy; format: in vivo, mice
Protocol: (§4) For efficacy studies, 1 × 10^7 MIA PaCa-2 or 1 × 10^6 BxPC-3 cells (with Matrigel® 50:50) were injected subcutaneously into the right flank of female BomTac:NMRI-Foxn1^nu mice (age 6 weeks, 24-30 g; Taconic, Denmark). These two and the following tumor models were established from adherently grown cells which were either subcutaneously injected in PBS (LoVo, SW480, A-498, Calu-6, NCI-H2122, A549, SK-OV-3, TOV-21G, AsPC-1, PC-3) or were injected with Matrigel (HCC-461, A2780, PANC-1 and Hs 746 T). For the Caki-1 tumor model tumor fragments were passaged in mice. Mice were randomized according to tumor volume when tumors had reached diameters of 6–8 mm. […] Natrosol-treated animals served as vehicle controls (n = 10). Tumor diameters were measured three times weekly using a caliper and volumes were calculated according to the formula “tumor volume = length × diameter^2 × π/6”. Mice were inspected daily for abnormalities and body weight was determined three times weekly. Animals were euthanized at the end of the study or prematurely, based on criteria including weight loss exceeding 20%, tumor necrosis or tumor volumes exceeding 1500 mm^3.
(§5) Statistical evaluation was performed using SAS 8.2 (SAS Institute, Cary, NC, USA) and Proc StatXact (Cytel Software, Cambridge, MA, USA).
(§6) where Td and Cd denote the median of the tumor volume in the treatment group and the control group at day d, respectively. A one-sided increasing Wilcoxon test was applied to compare each experimental group with the vehicle control, the p values were adjusted for multiple comparisons according to Bonferroni–Holm. The level of significance was fixed at α = 5%. An adjusted p value of <0.05 was considered to show a significant difference between groups.

A2780 ovary xenograft = assay: Subcutaneous xenograft efficacy; format: in vivo, mice
Protocol: as §4, §5, §6

A549 lung xenograft = assay: Subcutaneous xenograft efficacy; format: in vivo, mice
Protocol: as §4, §5, §6

[10] = tested on: AsPC-1 pancreas xenograft; assay: Subcutaneous xenograft efficacy; format: in vivo, mice
Protocol: as §4, §5, §6

[11] = tested on: BxPC-3 pancreas adenocarcinoma xenograft; assay: Subcutaneous xenograft efficacy; format: in vivo, mice; details: BxPC-3, 50 mg/kg
Protocol: as §4, §5, §6

Caki-1 kidney xenograft = assay: Subcutaneous xenograft efficacy; format: in vivo, mice
Protocol: as §4, §5, §6

Calu-6 lung xenograft = assay: Subcutaneous xenograft efficacy; format: in vivo, mice
Protocol: as §4, §5, §6

HCC-461 lung xenograft = assay: Subcutaneous xenograft efficacy; format: in vivo, mice
Protocol: as §4, §5, §6

[12] = tested on: Hs 746T stomach xenograft; assay: Subcutaneous xenograft efficacy; format: in vivo, mice
Protocol: as §4, §5, §6

[13] = tested on: LoVo colon/rectum xenograft; assay: Subcutaneous xenograft efficacy; format: in vivo, mice
Protocol: as §4, §5, §6

[14] = tested on: MIA PaCa-2 pancreas adenocarcinoma xenograft; assay: Subcutaneous xenograft efficacy; format: in vivo, mice
Protocol: as §4, §5, §6

[15] = tested on: NCI-H2122 lung carcinoma xenograft; assay: Subcutaneous xenograft efficacy; format: in vivo, mice
Protocol: as §4, §5, §6

[16] = tested on: PANC-1 pancreas xenograft; assay: Subcutaneous xenograft efficacy; format: in vivo, mice
Protocol: as §4, §5, §6

[17] = tested on: PC-3 prostate carcinoma xenograft; assay: Subcutaneous xenograft efficacy; format: in vivo, mice
Protocol: as §4, §5, §6

[18] = tested on: SK-OV-3 ovarian carcinoma xenograft; assay: Subcutaneous xenograft efficacy; format: in vivo, mice
Protocol: as §4, §5, §6

[19] = tested on: SW480 colon carcinoma xenograft; assay: Subcutaneous xenograft efficacy; format: in vivo, mice
Protocol: as §4, §5, §6

TOV-21G ovary xenograft = assay: Subcutaneous xenograft efficacy; format: in vivo, mice
Protocol: as §4, §5, §6

NCI-H2110 lung xenograft = assay: Subcutaneous xenograft efficacy; format: in vivo, mice
Protocol: as §5, §6

[20] = clinical trials NCT01905111 and NCT01335269; cited from earlier work
[21] = female, BomTac:NMRI-Foxn1^nu, mouse, plasma, single oral dose 50 mg/kg

T1 sequence (Q14289 whole entry): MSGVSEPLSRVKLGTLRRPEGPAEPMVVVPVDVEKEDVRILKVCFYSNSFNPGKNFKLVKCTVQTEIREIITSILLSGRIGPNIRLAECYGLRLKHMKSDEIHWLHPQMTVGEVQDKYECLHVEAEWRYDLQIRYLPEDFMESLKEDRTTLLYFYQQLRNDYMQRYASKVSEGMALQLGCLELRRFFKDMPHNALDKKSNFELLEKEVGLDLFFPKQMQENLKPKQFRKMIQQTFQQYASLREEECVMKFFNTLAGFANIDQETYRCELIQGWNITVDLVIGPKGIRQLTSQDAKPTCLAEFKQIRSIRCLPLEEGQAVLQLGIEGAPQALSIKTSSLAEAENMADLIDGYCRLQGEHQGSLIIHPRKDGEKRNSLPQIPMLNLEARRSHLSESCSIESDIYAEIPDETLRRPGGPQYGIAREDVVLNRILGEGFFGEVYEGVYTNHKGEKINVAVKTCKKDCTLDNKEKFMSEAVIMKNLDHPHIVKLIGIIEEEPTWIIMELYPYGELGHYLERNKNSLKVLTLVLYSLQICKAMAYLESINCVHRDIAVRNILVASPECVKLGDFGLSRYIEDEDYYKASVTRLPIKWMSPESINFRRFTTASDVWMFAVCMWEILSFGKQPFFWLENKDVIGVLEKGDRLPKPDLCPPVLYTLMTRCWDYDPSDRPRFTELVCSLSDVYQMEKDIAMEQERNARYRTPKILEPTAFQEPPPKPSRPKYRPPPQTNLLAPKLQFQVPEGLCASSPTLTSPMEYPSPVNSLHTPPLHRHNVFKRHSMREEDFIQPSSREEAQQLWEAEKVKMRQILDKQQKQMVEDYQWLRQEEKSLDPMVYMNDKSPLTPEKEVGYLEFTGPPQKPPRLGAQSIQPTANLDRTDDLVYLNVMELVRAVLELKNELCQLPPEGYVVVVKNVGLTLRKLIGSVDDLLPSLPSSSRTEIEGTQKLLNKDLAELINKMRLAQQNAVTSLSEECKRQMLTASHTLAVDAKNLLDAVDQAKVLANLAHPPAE
T2 sequence (P16591 whole entry): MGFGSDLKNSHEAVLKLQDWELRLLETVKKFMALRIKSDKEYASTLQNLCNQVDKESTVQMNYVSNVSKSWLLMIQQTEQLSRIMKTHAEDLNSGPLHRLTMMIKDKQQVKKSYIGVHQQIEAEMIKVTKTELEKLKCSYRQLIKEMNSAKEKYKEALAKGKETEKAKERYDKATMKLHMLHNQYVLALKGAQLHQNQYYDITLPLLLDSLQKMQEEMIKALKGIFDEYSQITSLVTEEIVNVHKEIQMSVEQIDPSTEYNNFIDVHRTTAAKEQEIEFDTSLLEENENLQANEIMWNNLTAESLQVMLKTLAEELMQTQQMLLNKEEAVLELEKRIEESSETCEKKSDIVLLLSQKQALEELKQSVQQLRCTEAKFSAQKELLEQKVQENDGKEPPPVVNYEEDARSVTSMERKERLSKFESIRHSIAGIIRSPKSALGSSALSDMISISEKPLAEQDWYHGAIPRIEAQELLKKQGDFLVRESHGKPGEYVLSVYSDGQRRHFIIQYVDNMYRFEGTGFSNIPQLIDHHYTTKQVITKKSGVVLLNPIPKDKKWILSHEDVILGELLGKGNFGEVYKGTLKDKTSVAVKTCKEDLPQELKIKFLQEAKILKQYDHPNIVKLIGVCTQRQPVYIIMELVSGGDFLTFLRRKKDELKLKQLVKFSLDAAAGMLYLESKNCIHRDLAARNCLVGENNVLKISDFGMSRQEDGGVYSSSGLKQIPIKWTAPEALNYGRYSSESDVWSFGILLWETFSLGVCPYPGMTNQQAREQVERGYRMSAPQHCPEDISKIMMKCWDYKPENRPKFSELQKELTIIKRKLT
T3 sequence (P07332 whole entry): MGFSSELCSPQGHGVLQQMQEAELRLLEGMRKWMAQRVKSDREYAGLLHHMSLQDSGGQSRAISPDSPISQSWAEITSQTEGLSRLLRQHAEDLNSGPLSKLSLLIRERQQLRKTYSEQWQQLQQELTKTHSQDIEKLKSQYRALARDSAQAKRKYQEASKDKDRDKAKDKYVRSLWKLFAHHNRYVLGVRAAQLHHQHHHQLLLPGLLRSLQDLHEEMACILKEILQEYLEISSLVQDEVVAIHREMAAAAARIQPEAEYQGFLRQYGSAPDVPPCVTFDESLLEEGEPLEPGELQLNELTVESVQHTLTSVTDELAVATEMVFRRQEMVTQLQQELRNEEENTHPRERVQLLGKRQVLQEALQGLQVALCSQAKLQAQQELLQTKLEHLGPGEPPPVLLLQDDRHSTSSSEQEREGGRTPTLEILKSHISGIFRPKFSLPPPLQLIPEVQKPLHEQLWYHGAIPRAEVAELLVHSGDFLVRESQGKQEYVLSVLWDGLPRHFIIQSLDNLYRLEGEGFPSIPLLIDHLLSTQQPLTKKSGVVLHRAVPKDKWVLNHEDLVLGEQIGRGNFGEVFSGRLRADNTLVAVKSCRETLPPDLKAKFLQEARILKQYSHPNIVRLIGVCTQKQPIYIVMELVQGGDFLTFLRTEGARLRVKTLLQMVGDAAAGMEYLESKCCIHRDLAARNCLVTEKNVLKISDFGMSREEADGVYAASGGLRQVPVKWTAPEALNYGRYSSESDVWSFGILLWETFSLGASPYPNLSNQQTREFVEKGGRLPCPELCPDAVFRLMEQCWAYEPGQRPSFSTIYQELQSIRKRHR
T4 sequence (Q9P286 whole entry): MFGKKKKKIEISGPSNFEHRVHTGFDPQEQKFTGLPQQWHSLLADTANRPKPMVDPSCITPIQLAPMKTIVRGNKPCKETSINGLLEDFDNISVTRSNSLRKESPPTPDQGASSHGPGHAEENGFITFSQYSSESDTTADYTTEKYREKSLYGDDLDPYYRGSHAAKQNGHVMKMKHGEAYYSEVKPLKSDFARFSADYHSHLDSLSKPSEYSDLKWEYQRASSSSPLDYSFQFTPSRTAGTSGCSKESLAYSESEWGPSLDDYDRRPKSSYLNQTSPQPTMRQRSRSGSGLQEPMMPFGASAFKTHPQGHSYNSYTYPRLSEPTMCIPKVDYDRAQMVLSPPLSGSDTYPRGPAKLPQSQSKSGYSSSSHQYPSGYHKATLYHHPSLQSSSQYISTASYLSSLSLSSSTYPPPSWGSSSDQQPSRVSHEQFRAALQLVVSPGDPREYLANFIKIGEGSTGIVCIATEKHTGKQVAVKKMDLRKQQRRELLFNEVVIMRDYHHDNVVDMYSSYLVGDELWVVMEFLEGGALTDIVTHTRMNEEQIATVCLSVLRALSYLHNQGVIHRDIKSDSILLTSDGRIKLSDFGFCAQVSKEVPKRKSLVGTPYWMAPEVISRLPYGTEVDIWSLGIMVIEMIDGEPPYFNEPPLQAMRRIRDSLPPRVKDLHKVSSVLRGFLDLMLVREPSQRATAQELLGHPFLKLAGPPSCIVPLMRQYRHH

Structure (SMILES): COc1cc(C(=O)NC2CCN(C)CC2)c(F)cc1Nc1ncc(C(F)(F)F)c(Oc2cccc3c2C(=O)N(C)C3)n1 [BI 853520]
- IC50 (PTK2B/PYK2 [1]): > 50000 nM
- IC50 (PTK2B/PYK2 [2]): 2000 nM
- IC50 (FER): 903 nM
- IC50 (FES): 1040 nM
- IC50 (PAK7): > 10000 nM
- EC50 (PC-3 cells [3]): > 3000 nM
- EC50 (PC-3 cells [4]): 3 nM
- maximal inhibition of proliferation [5]: 40%
- EC50 ([5]; Homo sapiens): 3 nM
- EC50 (PC-3; Homo sapiens): 10 nM
- maximal inhibition of proliferation (PC-3): 20%
- EC50 ([6]; Homo sapiens, few cell lines with interpretable sigmoid curves): 3 to 30 nM
- effect on proliferation, vast majority of cell lines ([6]; concentrations as high as 1 µmol/L): not affected
- maximal inhibition of proliferation ([6]; few cell lines with interpretable sigmoid curves): 20–30%
- clearance ([7]; BomTac:NMRI-Foxn1^nu, mouse, plasma, single intravenous dose 5 mg/kg, female nude mice): 36 mL/min/kg
- MRT ([7]; BomTac:NMRI-Foxn1^nu, mouse, plasma, single intravenous dose 5 mg/kg, female nude mice, read-out: mean residence time): 3 h
- Vd ([7]; BomTac:NMRI-Foxn1^nu, mouse, plasma, single intravenous dose 5 mg/kg, female nude mice, read-out: volume of distribution): 6.6 L/kg
- bioavailability [7, 21]: 90%
- half-life [7, 21]: 5 h
- Tmax ([7]; female, BomTac:NMRI-Foxn1^nu, mouse, single oral dose 50 mg/kg, plasma, read-out: time of maximal concentration): 2 h
- AUC ([7]; single oral dose 50 mg/kg): 46 µM·h
- maximal concentration ([7]; single oral dose 50 mg/kg, plasma): 4.4 µmol/L
- concentration at 24 h ([8]; PC-3 tumor tissue, 50 mg/kg p.o. qdx4, 24 h after dose on day 4, PC-3 tumors, read-out: concentration in tumor tissue): 8.9 µM
- Tmax ([8]; PC-3 tumor tissue, po, 50 mg/kg p.o. qdx4, day 4, PC-3 tumors, read-out: time of peak level in tumor tissue): 6 h
- concentration at 24 h ([8]; plasma, 50 mg/kg p.o. qdx4, 24 h after dose on day 4, read-out: plasma level): 1.3 µM
- tolerability (body weight gain, clinical signs) [9]: well tolerated
- Median TGI (A-498 kidney xenograft; A-498, 50 mg/kg once daily per os): 93%
- TGI (A-498 kidney xenograft; A-498 xenograft, Supplement Table 3): 93%
- Median TGI (A2780 ovary xenograft; A2780, 50 mg/kg once daily per os): 89%
- TGI (A2780 ovary xenograft; A2780 xenograft, Supplement Table 3): 89%
- Median TGI (A549 lung xenograft; A549, 50 mg/kg once daily per os): 15 (n.s.) % and 15%
- TGI (A549 lung xenograft; A549 xenograft, Supplement Table 3): 15%
- Median TGI ([10]; AsPC-1, 50 mg/kg once daily per os): 13 (n.s.) % and 13%
- TGI ([10]; AsPC-1 xenograft, Supplement Table 3): 13%
- Median TGI [11]: 29%
- Median TGI (Caki-1 kidney xenograft; Caki-1, 50 mg/kg once daily per os): 66%
- TGI (Caki-1 kidney xenograft; Caki-1 xenograft, Supplement Table 3): 66%
- Median TGI (Calu-6 lung xenograft; Calu-6, 50 mg/kg once daily per os): 102%
- TGI (Calu-6 lung xenograft; Calu-6 xenograft, Supplement Table 3): 102%
- Median TGI (HCC-461 lung xenograft; HCC-461, 50 mg/kg once daily per os): 102%
- TGI (HCC-461 lung xenograft; HCC-461 xenograft, Supplement Table 3): 102%
- TGI ([12]; Hs 746T xenograft, Supplement Table 3): 72%
- Median TGI ([12]; Hs 746T, 50 mg/kg once daily per os): 72%
- TGI ([13]; LoVo xenograft, Supplement Table 3): 14%
- Median TGI ([13]; LoVo, 50 mg/kg once daily per os, 50 mg/kg): 14 (n.s.) % and 14%
- TGI ([14]; MIA PaCa-2, 12.5 mg/kg, second independent study): 89%
- partial regressions ([14]; MIA PaCa-2, 25 mg/kg once daily): 5 out of 10 tumors
- TGI ([14]; MIA PaCa-2, 25 mg/kg once daily, first study): 94%
- TGI ([14]; MIA PaCa-2, 25 mg/kg, second independent study): 96%
- partial regressions ([14]; MIA PaCa-2, 50 mg/kg once daily): 6 out of 10 tumors
- Median TGI ([14]; MIA PaCa-2, 50 mg/kg once daily per os): 104%
- TGI ([14]; MIA PaCa-2 xenograft, Supplement Table 3): 104%
- Median TGI ([15]; NCI-H2122, 50 mg/kg once daily per os): 45 (n.s.) % and 45%
- TGI ([15]; NCI-H2122 xenograft, Supplement Table 3): 45%
- Median TGI ([16]; PANC-1, 50 mg/kg once daily per os): 83%
- TGI ([16]; PANC-1 xenograft, Supplement Table 3): 83%
- Median TGI ([17]; PC-3, 50 mg/kg once daily per os): 93%
- TGI ([17]; PC-3 xenograft, Supplement Table 3): 93%
- Median TGI ([18]; SK-OV-3, 50 mg/kg once daily per os): 57%
- TGI ([18]; SK-OV-3 xenograft, Supplement Table 3): 57%
- Median TGI ([19]; SW480, 50 mg/kg once daily per os): 26 (n.s.) % and 26%
- TGI ([19]; SW480 xenograft, Supplement Table 3): 26%
- TGI (TOV-21G ovary xenograft; TOV-21G xenograft, Supplement Table 3): 93%
- Median TGI (TOV-21G ovary xenograft; TOV-21G, 50 mg/kg once daily per os): 93%
- Sensitivity (NCI-H2110 lung xenograft): moderately sensitive (“moderately sensitive” for statistically significant TGI values of 57–83%)
- oral bioavailability in patients [20]: orally bioavailable
- safety profile in patients [20]: favorable safety profile
